The target of data set [1] is Cyclin-dependent kinase 13/Cyclin-K (Homo sapiens, UniProt Q14004). The data set is described as follows: Inhibition of human recombinant CDK13/CyclinK assessed as reduction in substrate phosphorylation using His-c-Myc as substrate preincubated with enzyme for 5 mins followed by substrate addition for 15 mins in presence of [gamma 32P-ATP] by radioactive kinase assay. Format: protein-complex assay.

A further data set has as its target CDK12/Cyclin K (Homo sapiens, UniProt Q9NYV4). The data set is described as follows: Inhibition of human recombinant CDK12/CyclinK assessed as reduction in substrate phosphorylation using His-c-Myc as substrate preincubated with enzyme for 5 mins followed by substrate addition for 15 mins in presence of [gamma 32P-ATP] by radioactive kinase assay. Format: protein-complex assay.

The target in data set [2] is Cyclin-dependent kinase 7/ cyclin H (Homo sapiens, UniProt P50613). The data set is described as follows: Inhibition of CDK7/Cyclin H (unknown origin). Format: protein-complex assay.
Cyclin-dependent kinase 7/ cyclin H, sequence (P51946 whole entry): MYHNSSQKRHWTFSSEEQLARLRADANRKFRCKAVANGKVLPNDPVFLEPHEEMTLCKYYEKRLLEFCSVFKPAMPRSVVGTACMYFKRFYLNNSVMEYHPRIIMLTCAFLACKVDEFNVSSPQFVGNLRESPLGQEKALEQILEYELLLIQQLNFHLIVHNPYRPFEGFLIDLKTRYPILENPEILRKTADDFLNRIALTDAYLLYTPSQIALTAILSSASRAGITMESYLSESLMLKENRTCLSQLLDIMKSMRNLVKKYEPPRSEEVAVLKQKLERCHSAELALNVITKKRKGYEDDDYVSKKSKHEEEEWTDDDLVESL
Cyclin-dependent kinase 7/ cyclin H, sequence (P50613 whole entry): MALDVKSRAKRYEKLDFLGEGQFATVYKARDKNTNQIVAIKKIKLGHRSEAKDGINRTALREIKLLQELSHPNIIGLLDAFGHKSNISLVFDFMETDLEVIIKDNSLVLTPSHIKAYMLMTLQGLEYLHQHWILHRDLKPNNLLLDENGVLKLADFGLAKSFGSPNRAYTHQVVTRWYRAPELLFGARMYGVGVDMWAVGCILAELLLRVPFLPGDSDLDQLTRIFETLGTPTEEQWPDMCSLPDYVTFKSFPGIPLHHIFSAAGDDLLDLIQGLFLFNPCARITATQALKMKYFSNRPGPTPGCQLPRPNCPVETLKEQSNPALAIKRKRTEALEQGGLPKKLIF
A further data set deals with CDK9/cyclin T1 (Homo sapiens, UniProt P50750). The data set is described as follows: Inhibition of CDK9/Cyclin T1 (unknown origin). In kind it is protein-complex assay.
CDK9/cyclin T1, sequence (O60563 whole entry): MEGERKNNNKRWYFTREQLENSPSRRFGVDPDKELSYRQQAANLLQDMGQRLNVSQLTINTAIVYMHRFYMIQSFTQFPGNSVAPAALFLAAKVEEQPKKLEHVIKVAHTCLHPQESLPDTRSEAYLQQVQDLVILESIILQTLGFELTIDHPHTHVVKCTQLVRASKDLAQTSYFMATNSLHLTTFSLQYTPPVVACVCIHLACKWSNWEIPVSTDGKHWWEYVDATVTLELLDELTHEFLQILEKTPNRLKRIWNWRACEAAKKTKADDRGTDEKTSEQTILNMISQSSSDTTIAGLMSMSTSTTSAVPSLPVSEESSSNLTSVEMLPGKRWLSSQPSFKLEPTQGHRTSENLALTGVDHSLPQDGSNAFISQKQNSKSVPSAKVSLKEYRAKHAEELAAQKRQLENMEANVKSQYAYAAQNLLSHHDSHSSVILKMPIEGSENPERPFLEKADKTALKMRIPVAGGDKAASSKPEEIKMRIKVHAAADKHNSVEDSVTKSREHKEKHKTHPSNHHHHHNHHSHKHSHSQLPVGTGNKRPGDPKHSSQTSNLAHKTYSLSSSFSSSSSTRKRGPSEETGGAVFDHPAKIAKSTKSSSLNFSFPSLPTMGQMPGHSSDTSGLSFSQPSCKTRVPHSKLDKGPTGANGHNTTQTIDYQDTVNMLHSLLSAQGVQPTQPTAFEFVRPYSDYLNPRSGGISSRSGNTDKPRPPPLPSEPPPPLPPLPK
CDK9/cyclin T1, sequence (P50750 whole entry): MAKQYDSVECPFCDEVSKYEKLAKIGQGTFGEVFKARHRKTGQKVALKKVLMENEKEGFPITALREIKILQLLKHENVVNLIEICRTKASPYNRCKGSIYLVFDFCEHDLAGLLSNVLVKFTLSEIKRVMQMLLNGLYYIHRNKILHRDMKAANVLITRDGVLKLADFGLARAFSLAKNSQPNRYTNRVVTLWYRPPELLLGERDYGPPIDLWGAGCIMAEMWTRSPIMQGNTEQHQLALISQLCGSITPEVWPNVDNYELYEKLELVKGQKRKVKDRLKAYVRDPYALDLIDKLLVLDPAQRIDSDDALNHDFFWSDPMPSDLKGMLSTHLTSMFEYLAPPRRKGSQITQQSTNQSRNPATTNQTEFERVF
In another data set the target is CDK2/Cyclin A2 (Homo sapiens, UniProt P24941). Nature of the data set: Inhibition of CDK2/Cyclin A (unknown origin). Format: protein-complex assay.
A short description of data set [3]: Metabolic stability in mouse liver microsomes assessed as half life. In kind it is ADME, Microsome.
For data set [4], the target named is Cyclin-dependent kinase 7 (Homo sapiens) (UniProt P50613). The data set is described as follows: Inhibition of THZ1-biotin binding from CDK7 in human Jurkat cells at 1 uM incubated for 6 hrs by CyclinH antibody based competitive pull down assay. In kind it is cell-based.
Cyclin-dependent kinase 7 (Homo sapiens), sequence (P50613 whole entry): as the sequence (P50613 whole entry) above
The nature of data set [5]: Downregulation of RNA polymerase 2 in human Jurkat cells at 1 uM measured after 6 hrs by immunoblotting analysis. In kind it is functional. Background: In western blotting, separated proteins are transferred to a membrane and probed.
A short description of data set [6]: Antiproliferative activity against human Kelly cells harboring CDK12 C1039F mutant assessed as reduction in cell viability incubated for 72 hrs by CellTiter-Glo assay. Format: functional, cell-based. On the technique in general: Cellular ATP, detected with luciferase, serves as a proxy for viable cell number.
A short description of data set [7]: Antiproliferative activity against human TC71 cells assessed as reduction in cell viability. In kind it is functional, cell-based. The conditions noted are these: TC-71.
Data set [8] can be described thus: Antiproliferative activity against human Kelly cells harboring wild type CDK12 assessed as reduction in cell viability incubated for 72 hrs by CelTiter-Glo assay. In kind it is functional, cell-based.
The nature of data set [9]: Downregulation of RNA polymerase 2 CTD phosphorylation at Ser5 residue in human Jurkat cells at 1 uM incubated for 6 hrs by immunoblotting analysis. In kind it is functional.
Data set [10] deals with Cyclin-dependent kinase 12/13 (Homo sapiens) (UniProt Q14004+Q9NYV4). The data set is described as follows: Inhibition of CDK12/13 in human jurkat cells assessed as reduction in RNA polymerase 2 CTD phosphorylation at Ser2 residue at 1 uM measured after 6 hrs by immunoblotting analysis. Format: cell-based.
The nature of data set [11]: Downregulation of RNA polymerase 2 CTD phosphorylation at Ser7 residue in human Jurkat cells at 1 uM incubated for 6 hrs by immunoblotting analysis. In kind it is functional.

Among the data in ChEMBL document CHEMBL4828703, “Structure-activity relationship study of THZ531 derivatives enables the discovery of BSJ-01-175 as a dual CDK12/13 covalent inhibitor with efficacy in Ewing sarcoma” (Eur J Med Chem, 2021) are IC50, t1/2 and inhibition values, retold here.

A word on the IC50: it is the concentration at which inhibition is half-maximal. As usually defined, the inhibition is the percentage by which the read-out fell short of the control.

Activity calls are given as the source filed them. The rule behind the calls is not given here.

CDK12/Cyclin K, sequence (O75909 whole entry): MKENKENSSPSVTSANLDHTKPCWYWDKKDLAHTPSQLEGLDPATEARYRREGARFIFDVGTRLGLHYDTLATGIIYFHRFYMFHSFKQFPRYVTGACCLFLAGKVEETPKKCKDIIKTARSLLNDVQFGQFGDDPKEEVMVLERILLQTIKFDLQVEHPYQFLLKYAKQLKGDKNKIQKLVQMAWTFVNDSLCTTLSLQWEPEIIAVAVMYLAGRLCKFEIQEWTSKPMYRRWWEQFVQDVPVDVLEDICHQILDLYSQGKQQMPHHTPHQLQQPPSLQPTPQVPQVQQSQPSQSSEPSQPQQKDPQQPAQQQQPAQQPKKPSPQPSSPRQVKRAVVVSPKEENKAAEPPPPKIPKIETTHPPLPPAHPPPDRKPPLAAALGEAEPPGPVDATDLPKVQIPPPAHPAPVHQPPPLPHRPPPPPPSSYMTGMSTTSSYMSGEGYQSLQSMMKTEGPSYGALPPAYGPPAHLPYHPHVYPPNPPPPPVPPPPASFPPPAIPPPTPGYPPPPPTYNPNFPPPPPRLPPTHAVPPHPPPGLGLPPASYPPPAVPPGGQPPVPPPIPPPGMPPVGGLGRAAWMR
CDK12/Cyclin K, sequence (Q9NYV4 whole entry): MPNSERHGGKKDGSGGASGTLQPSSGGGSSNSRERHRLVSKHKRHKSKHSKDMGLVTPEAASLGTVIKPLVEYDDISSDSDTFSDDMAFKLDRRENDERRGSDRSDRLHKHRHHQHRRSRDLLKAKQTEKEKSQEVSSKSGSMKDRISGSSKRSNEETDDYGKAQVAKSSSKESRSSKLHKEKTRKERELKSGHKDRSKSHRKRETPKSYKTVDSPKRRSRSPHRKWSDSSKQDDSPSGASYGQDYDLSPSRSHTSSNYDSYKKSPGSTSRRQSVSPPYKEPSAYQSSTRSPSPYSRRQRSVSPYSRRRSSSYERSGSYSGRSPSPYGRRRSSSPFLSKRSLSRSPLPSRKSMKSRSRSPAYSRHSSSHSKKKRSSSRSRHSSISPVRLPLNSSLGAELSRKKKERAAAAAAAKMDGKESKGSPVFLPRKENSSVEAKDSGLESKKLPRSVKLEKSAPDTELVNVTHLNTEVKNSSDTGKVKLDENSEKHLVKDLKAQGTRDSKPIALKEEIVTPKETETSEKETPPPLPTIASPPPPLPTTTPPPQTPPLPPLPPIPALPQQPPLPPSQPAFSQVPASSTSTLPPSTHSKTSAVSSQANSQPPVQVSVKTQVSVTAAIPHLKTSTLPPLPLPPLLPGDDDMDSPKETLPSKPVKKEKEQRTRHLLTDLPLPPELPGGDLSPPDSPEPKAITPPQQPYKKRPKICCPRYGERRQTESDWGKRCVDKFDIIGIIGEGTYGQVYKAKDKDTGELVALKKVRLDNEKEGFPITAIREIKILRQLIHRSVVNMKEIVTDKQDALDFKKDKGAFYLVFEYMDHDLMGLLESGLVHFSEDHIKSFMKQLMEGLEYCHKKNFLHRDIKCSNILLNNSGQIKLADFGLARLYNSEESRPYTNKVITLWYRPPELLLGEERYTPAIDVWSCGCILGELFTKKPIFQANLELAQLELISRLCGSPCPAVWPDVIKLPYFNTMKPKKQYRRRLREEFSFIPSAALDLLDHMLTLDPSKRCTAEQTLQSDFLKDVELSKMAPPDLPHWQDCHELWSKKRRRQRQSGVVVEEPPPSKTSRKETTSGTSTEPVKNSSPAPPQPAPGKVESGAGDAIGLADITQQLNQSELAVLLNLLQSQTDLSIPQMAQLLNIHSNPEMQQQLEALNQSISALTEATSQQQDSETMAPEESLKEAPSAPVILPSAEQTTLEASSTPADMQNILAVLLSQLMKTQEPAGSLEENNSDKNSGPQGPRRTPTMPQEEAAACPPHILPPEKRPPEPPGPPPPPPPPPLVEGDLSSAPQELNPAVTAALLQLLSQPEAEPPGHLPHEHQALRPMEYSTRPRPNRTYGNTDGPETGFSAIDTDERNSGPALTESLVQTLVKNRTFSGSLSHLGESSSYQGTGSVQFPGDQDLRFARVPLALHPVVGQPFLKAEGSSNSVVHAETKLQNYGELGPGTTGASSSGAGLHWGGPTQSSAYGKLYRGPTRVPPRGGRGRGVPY

Turning to `CN(C)C/C=C/C(=O)Nc1ccc(O[C@@H]2CCC[C@@H](Nc3ncc(Cl)c(-c4c[nH]c5ccccc45)n3)C2)c(F)c1`, the IC50 in data set [1] turned out to be 484 nM; on CDK12/Cyclin K it was 857 nM.
For `CN(C)C/C=C/C(=O)Nc1ccc(O[C@H]2CCC[C@@H](Nc3ncc(Cl)c(-c4c[nH]c5ccccc45)n3)C2)cc1`, the IC50 worked out at 112 nM in [2]; 182 nM in data set [1]; 181 nM on CDK12/Cyclin K; 132 nM on CDK9/cyclin T1; 650 nM at CDK2/Cyclin A2.
As to `C=CC(=O)Nc1ccc(C(=O)N2CCC[C@@H](Nc3ncc(Cl)c(-c4c[nH]c5ccccc45)n3)C2)nc1`, in data set [3], the t1/2 was found to be 3.5 min. The IC50 in data set [1] turned out to be 799 nM; on CDK12/Cyclin K it was 232 nM.
Consider `CN(C)C/C=C/C(=O)Nc1ccc(C(=O)N2CCCC[C@@H](Nc3ncc(Cl)c(-c4c[nH]c5ccccc45)n3)C2)cc1`, for which the IC50 stood at 388 nM in data set [2]; 1830 nM in [1]; 1450 nM on CDK12/Cyclin K; 1220 nM at CDK9/cyclin T1; 339 nM against CDK2/Cyclin A2.
The like results for `CN(C)C/C=C/C(=O)Nc1ccc(N2CCC[C@@H](Nc3ncc(Cl)c(-c4c[nH]c5ccccc45)n3)C2)cc1` were, in that order, 69.5 nM, 178 nM, 167 nM, 155 nM and 623 nM.
Regarding `CN(C)C/C=C/C(=O)Nc1ccc(C(=O)N2CCC[C@@H](Nc3ncc(C(F)(F)F)c(-c4c[nH]c5ccccc45)n3)C2)cc1`, the IC50 in [2] was over 10000 nM; in [1], 10000 nM; at CDK12/Cyclin K it was over 10000 nM; at CDK9/cyclin T1, over 10000 nM; on CDK2/Cyclin A2 it was 10000 nM.
Consider `CN(C)C/C=C/C(=O)Nc1ccc(C(=O)N2CC[C@@H](Nc3ncc(Cl)c(-c4c[nH]c5ccccc45)n3)C2)cc1`, for which the IC50 in data set [1] was 50.2 nM; at CDK12/Cyclin K, 68.7 nM; at CDK9/cyclin T1 it was 14.2 nM; on CDK2/Cyclin A2, 49.3 nM.
Consider `CN(C)C/C=C/C(=O)Nc1ccc(C(=O)N2CCC[C@@H](Nc3ncc(Cl)c(-c4c[nH]c5ccccc45)n3)C2)cc1`, for which, in data set [4], the inhibition entry is “Active”. The figures for the inhibition at 1 µM in [5], in data set [9] and in [11] were 0%, 0% and 42%, respectively. Moreover, the IC50 in data set [1] was 657 nM; in data set [6], 254 nM; in data set [7], 65.9 nM; on CDK12/Cyclin K, 483 nM; at CDK9/cyclin T1 it was 193 nM; in data set [8] it was 93 nM. The same compound displayed an IC50 at CDK2/Cyclin A2 of 1300 nM. Moreover, the inhibition in data set [10] came to 76%.
Regarding `CN(C)C/C=C/C(=O)Nc1ccc(C(=O)N2CCC[C@@H](Nc3ncc(Cl)c(-c4c[nH]c5ccccc45)n3)C2)nc1`, the IC50 in [1] was 1640 nM; at CDK12/Cyclin K, 765 nM.
On to `Nc1ccc(OC2CCC[C@@H](Nc3ncc(Cl)c(-c4cn(S(=O)(=O)c5ccccc5)c5ccccc45)n3)C2)cc1` (stereo partly specified), for which the t1/2 in [3] is given as 5.4 min.
As to `CN(C)C/C=C/C(=O)Nc1ccc(C(=O)N2CCC[C@@H](Nc3ncc(Br)c(-c4c[nH]c5ccccc45)n3)C2)cc1`, the IC50 in data set [2] was 115 nM; in [1], 573 nM; on CDK12/Cyclin K it was 226 nM; against CDK9/cyclin T1 it was 184 nM; at CDK2/Cyclin A2 it was 1000 nM.
For `CN(C)C/C=C/C(=O)Nc1ccc(C(=O)N2CCC[C@@H](Nc3ncc(C4CC4)c(-c4c[nH]c5ccccc45)n3)C2)cc1` the same measures were 625 nM, over 10000 nM, 9980 nM, over 10000 nM and over 10000 nM.
In the case of `CN(C)C/C=C/C(=O)Nc1ccc(N2CCC[C@@H](Nc3ncc(Cl)c(-c4c[nH]c5ccccc45)n3)C2)nc1`, the IC50 worked out at 186 nM in [1] and 35.4 nM on CDK12/Cyclin K.
